Data from patent publication US20250376498A1, “FUSION PROTEINS COMPRISING AN IMPROVED GLP-1 RECEPTOR AGONIST AND USES THEREOF” (Guangzhou Innogen Pharmaceutical Group Co., Ltd., priority 2022, published 2025).
“Also recorded” adds a separate entry of the source.

Tests used:
SH-SY5Y neuronal cells = test: TNF-α-induced apoptosis in SH-SY5Y cells (western blot Bcl-2, cleaved-caspase3); type: cell-based; conditions: 60 ng/ml TNF-α, 48 hours; YN-011 10, 100, 500 nM; GABA 1, 10, 100 μM; combination 100 μM GABA + 100 nM YN-011
Experimental: The experimental procedure is as follows: • 1) Digest SH-SY5Y neuronal cells in a 10 cm culture dish using 0.25% trypsin and seed them into a 12-well plate. • 2) Place the culture plate in a CO2 incubator for overnight pre-culture (37° C., 5% CO2) to allow cell adhesion. • 3) Using medium containing 5% FBS, treat the cells in each well with 60 ng/ml TNF-α alone or co-treated with 10, 100, or 500 nM YN-011. Incubate the cells at 37° C. for 48 hours. Each drug treatment is performed in three replicate wells. • 4) After 48 hours, discard the supernatant, gently wash the cells once with PBS, and place the cell culture plate on ice. Add 120 μl of RIPA cell lysis buffer (Beyotime P0013B) to each well, including protease and phosphatase inhibitors, and lyse the cells for 15 minutes. • 5) Transfer the cell lysate to a 1.5 ml EP tube and centrifuge at 14,000 rpm for 30 minutes. • 6) Carefully aspirate the supernatant into a new EP tube, add 5× loading buffer containing β-mercaptoethanol, and boil the samples at 100° C. for 10 minutes to denature the proteins. • 7) Perform SDS-PAGE gel electrophoresis with 10 μg of protein loaded per lane. Position the gel vertically against the power rack in the electrophoresis tank, ensuring that the concave side of the gel faces the power rack. Two gels can share one power rack. Fix the gel and power rack in the electrophoresis tank as required. […]

HMC3 microglial cells = test: Inflammatory factor expression in HMC3 microglial cells induced by Aβ1-42 oligomers (western blot); type: cell-based, human; conditions: for expression of TNF-α (protein) / expression of IL-6 (protein): 10 μM Aβ1-42 oligomers, 48 hours, YN-011 100 nM and 500 nM, combination 100 μM GABA and 100 nM YN-011; for expression of TNF-α (protein): GABA 10 µM and 100 μM; for expression of IL-6 (protein): GABA 100 μM; for inflammatory cytokine expression: Aβ1-42 oligomers (figure legends)
Experimental: Seed HMC3 human microglial cells into a 12-well plate. After overnight incubation at 37° C. with 5% CO2, treat the cells in each well with 10 μM Aβ1-42 oligomers alone or co-treated with 1, 10, or 100 μM GABA for 48 hours. Each drug treatment is performed in three replicate wells. After 48 hours of treatment, wash the cells with PBS and lyse the cells in RIPA buffer supplemented with protease inhibitor and phosphatase inhibitor on ice for 15 minutes. Centrifuge the cell lysate at 14,000 rpm for 30 minutes. Collect the supernatant, mix with 5× loading buffer supplemented with β-mercaptoethanol, and boil at 100° C. for 10 minutes. Separate denatured proteins by SDS-PAGE. Briefly, load 10 μg of protein onto precast mini polyacrylamide gels (SurePAGE, GenScript #M00657) and run at 120 V voltage. Subsequently, transfer the gel onto a PVDF membrane (0.22 μm pore size) at 200 mA for 90 minutes. After […], incubate the membrane at room temperature with primary antibodies diluted in 5% milk solution (TNF-α, Proteintech #60291-Ig; IL-6, Proteintech #21865-1-AP; HSP90, Proteintech #13171-1-AP) overnight at 4° C. After washing, incubate the membrane with corresponding secondary antibodies (Jackson Lab, 1:10000) at room temperature for 1 hour. After washing, visualize the antibody signals on the membrane using an ECL kit (Millipore #WBKLS0500) following the manufacturer's instructions. Calculate the relative protein levels normalized to the endogenous protein HSP90 using ImageJ.
Please refer to section 8.20 for the experimental procedure, but the drug treatment in this experiment is different from that in section 8.20. In this experiment, the drug treatment is as follows: treat the cells in each well with 10 μM Aβ1-42 oligomers alone or co-treated with 10, 100, or 500 nM YN-011 for 48 hours. Each drug treatment is performed in three replicate wells.
Please refer to section 8.20 for the experimental procedure, but the drug treatment in this experiment is different from that in section 8.20. In this experiment, the drug treatment is as follows: treat the cells in each well with 10 μM Aβ1-42 oligomers alone or co-treated with 100 μM GABA and/or 100 nM YN-011 for 48 hours. Each drug treatment is performed in three replicate wells.

| Molecule | TNF-α-induced apoptosis in SH-SY5Y neuronal cells (western blot) (SH-SY5Y neuronal cells) | expression of TNF-α (protein) (HMC3 microglial cells) | expression of IL-6 (protein) (HMC3 microglial cells) | inflammatory cytokine expression (HMC3 microglial cells) |
| --- | --- | --- | --- | --- |
| NCCCC(=O)O [GABA, γ-aminobutyric acid] | reduces TNF-α-induced apoptosis; also recorded: reduction of TNF-α-induced apoptosis | significantly reduce | significantly reduces | reduction of inflammatory cytokine expression |
| YN-011: GLP-1 fusion protein of SEQ ID NO: 7: GLP-1 (A8G, G22E, R36G), linker peptide and IgG2/Fc domain (C222S, A330S, P331S) (protein) HGEGTFTSDVSSYLEEQAAKEFIAWLVKGGGSSGAPPPSGGGGSERKSCVECPPCPAPPVAGPSVFLFPPKPKDTLMISRTPEVTCVVVDVSHEDPEVQFNWYVDGVEVHNAKTKPREEQFNSTFRVVSVLTVVHQDWLNGKEYKCKVSNKGLPSSIEKTISKTKGQPREPQVYTLPPSREEMTKNQVSLTCLVKGFYPSDIAVEWESNGQPENNYKTTPPMLDSDGSFFLYSKLTVDKSRWQQGNVFSCSVMHEALHNHYTQKSLSLSPG | significantly reduces TNF-α-induced apoptosis; also recorded: reduction of TNF-α-induced apoptosis | significantly reduce | significantly reduce | reduction of inflammatory cytokine expression |
